Source: patent publication US20240261236A1, “METHODS OF USING NMDA RECEPTOR ANTAGONISTS” (Seelos Therapeutics, Inc., priority 2021, published 2024)

Key:
[1] = tested on: adults with major depressive disorder (MDD) who are at imminent risk of suicide; experiment: MADRS item 10 (suicidal thoughts), Phase 2 Part 1; assay type: in vivo, human; conditions: for MADRS item 10 (suicidality) score: 24 hours post-administration, baseline 5 units; for MADRS Item 10 mean score: baseline 5.2; for MADRS Suicide Item-10 response rate: summary through Day 29/30
Source text: The Montgomery-Åsberg Depression Rating Scale (MADRS) is a diagnostic questionnaire that can be used to measure the severity of a depressive episode in a subject. In some embodiments, the MADRS can be used to measure suicidal ideation. For example, the MADRS includes 10 items directed to the following: 1) apparent sadness (e.g., representing despondency, gloom and despair that is more than just ordinary transient low spirits that is reflected in speech, facial expression, and posture); 2) reported sadness (e.g., representing reports of depressed mood, regardless of whether it is reflected in appearance or not and can include low spirits, despondency or the feeling of being beyond help and without hope); 3) inner tension (e.g., representing feelings of ill-defined discomfort, edginess, inner turmoil, mental tension mounting to either panic, dread or anguish); 4) reduced sleep (e.g., representing the experience of reduced duration or depth of sleep compared to the subject's own normal pattern when well); 5) reduced appetite (e.g., representing the feeling of a loss of appetite compared with when-well); 6) concentration difficulties (e.g., representing difficulties in collecting one's thoughts mounting to an incapacitating lack of concentration); 7) lassitude (e.g., representing difficulty in getting started or slowness in initiating and performing everyday activities); 8) inability to feel (e.g., representing the subjective experience of reduced interest in the surroundings, or activities that normally give pleasure, and the ability to react with adequate emotion to circumstances or people is reduced); 9) pessimistic thoughts (e.g., representing thoughts of guilt, inferiority, self-reproach, sinfulness, remorse and ruin); and 10) suicidal thoughts (e.g., representing the feeling that life is not worth living, that a natural death would be welcome, suicidal thoughts, and preparations for suicide). Each item is rated from 0 units to 6 units, with 0 reflecting that the subject is not at all as described by the item and 6 reflecting that the subject is extremely like what is described by the item. […] As another example, for suicidal thoughts, a score of 0 units can indicate that the subject enjoys life or takes it as it comes; a score of 2 units can indicate that the subject is weary of life and may have fleeting suicidal thoughts; a score of 4 units can indicate that the subject feels he or she would probably be better off dead (e.g., suicidal thoughts are common, and suicide is considered as a possible solution, but without specific plans or intention); and a score of 6 units can indicate that the subject has explicit plans for suicide when there is an opportunity (e.g., the subject has made active preparations for suicide). Thus, the total score, after summation of each score for each item, is on a scale of 0 units to 60 units.
In some embodiments, item 10, e.g., suicidal thoughts, of the MADRS can be used to measure suicidal ideation.
The secondary endpoints are the change from baseline at 24 hours, as well as at Day 16, in the following: • (1) S-STS total score • (2) MADRS Total at Day 16 (only) • (3) Clinical Global Impression (CGI) of Severity for SI/B (CGIS-SI/B) and Change in SI/B (CGIC-SI/B) • (4) Patient Global Impression (PGI) of Severity for SI/B (PGIS-SI/B) and Change in SI/B (PGIC-SI/B • (5) S-STS Clinician-Rated Global Severity of Suicidal Impulses, Thoughts, and Behaviors • (6) S-STS Clinician judgment of subject's risk of a suicide attempt or death by suicide at this time • (7) S-STS Clinician judgment of subject's likelihood (risk) of making a suicide attempt or of dying by suicide in the next 7 days • (8) S-STS Subject-rated global severity of suicidal impulses, thoughts, and behavior • (9) S-STS Subject-rated treatment needed score • (10) MADRS item 10 response rate (response ≤3 units) • (11) MADRS Total response (total score ≥50% reduction from baseline) • (12) MADRS Total remission (total score ≤12 units) […]

[2] = Leung and Baillie 1986; cited from earlier work
[3] = tested on: adults with major depressive disorder (MDD) who are at imminent risk of suicide; experiment: MOAA/S sedation, Phase 2 Part 1

## CNC1(c2ccccc2Cl)CCCCC1=O (racemic) [intranasal racemic ketamine, 1:1 mixture of the two enantiomers of ketamine: (R)-2-(2-chlorophenyl)-2-(methylamino)cyclohexanone and (S)-2-(2-chlorophenyl)-2-(methylamino)cyclohexanone]
[1]; 90 mg IN+SOC
  sustained response on MADRS Item 10, time after the final administration: 15 days
[1]; 90 mg IN+SOC, Subject 1, range 0-6
  MADRS item 10 (suicidality) score: 0 units
[1]; 90 mg IN+SOC, second subject (not given)
  MADRS item 10 (suicidality) score: 0 units
[1]; 24 hours post-dose
  subjects who experienced MADRS Item 10 response: 94.1%
[1]; Day 1
  MADRS Item 10 mean score: 0.8
  MADRS Suicide Item-10 response rate: 94%
[1]; Day 16
  subjects who experienced MADRS Item 10 response: 100%
  MADRS Suicide Item-10 response rate: 100%
[1]; Day 29
  MADRS Item 10 mean score: 0.0
[1]; study end (Day 29/30)
  subjects who experienced MADRS Item 10 response: 100%
[2]
  anesthetic activity: anesthetic activity
[3]; 90 mg IN+SOC, Subject 1, 15 minutes post-administration, pre-dose 5 units
  MOAA/S score: 4 units
[3]; 90 mg IN+SOC, Subject 1, 30 minutes
  MOAA/S score: 5 units
[3]; 90 mg IN+SOC, Subject 2, throughout the trial
  MOAA/S score: 5 units
[3]; 90 mg IN+SOC, Subjects 1 and 2, in contrast to intranasal (S)-ketamine
  sedation: little to no sedation
[3]; Day 1
  subjects with MOAA/S score of 5 units at all time-points: 5 of 7 subjects
[3]; Day 1, 7 subjects
  MOAA/S score (no one had a score below): ≥ 4 units
